Legend:
[1] = tested on: FL1^+ cells (glioma-initiating cells, gliomasphere cultures); test: in vitro recurrence assay (treatment then recovery), viable FL1+ cells by FACS; format: cell-based, human; details: for killing of FL1^+ cells: 5 μM, exposure along 20 days; for rating as anti-CSC agent: in vitro recurrence assay criteria; for number of viable FL1^+ cells: temsirolimus (1 μM elsewhere in the source), 5 μM cyclopamine, 5 μM DAPT; for killing of FL1^+ cell population by inhibition of mitochondrial complex: FIG. 6, 5 μM
Text: In contrast to other methods, which preferentially use cancer cell lines and stem cell marker like CD133 as a read-out of stemness, the Applicants' technology relies on primary cell cultures derived from human specimen and on a simple and unbiased detection of CICs independently of the use of any marker. Thus Applicants took advantage of such methodology to design and develop an in vitro recurrence assay to screen and validate potential therapeutic agents for eradicating cancer stem cells in glioma. […] The novelties here reside on the read-out of stemness used for testing the efficiency of any drug and on the possibility to identify specific anti-CSC agent.
Basically, any agent or inhibitor would be considered as an efficient anti-CSC agent if it fulfils the following criteria:
• 1) a viability of GICs (FL1^+ cells) decreases for more than 50% during the exposure to said agent or inhibitor during a maximum of 20 days, • 2) a recovery of GICs (FL1^+ cells) is less than 0.2 fold during the recovery phase of a maximum of 20 days, and • 3) the viability of normal brain cells is sustainable and recoverable during and after the exposure to the said agent or inhibitor.
a) Providing a cancer stem cell sample;
b) Treating the cancer stem cell sample provided under (a) with an agent;
c) Incubating the treated stem cell sample in a stem cell culture medium for an incubation period without treatment;
d) Selecting the viable cell population from the stem cell sample incubated under step (c); […]

primary GBM-2 cells = test: in vivo tumorigenicity of cells pretreated in vitro with inhibitors; parameters: species or system mice; details: GBM-2 cells treated 10 days in vitro prior implantation; for histological analyses for tumours: 17 weeks post-implantation; for state of mice implanted with pretreated cells: up to 17 weeks post-implantation
Text: Control mice had symptoms 4 weeks post-implantation and were sacrificed. […] Experiment was stopped 17 weeks post-implantation.

FL1^+ cells = test: effect of exogenous lactate addition on FL1+ cells; format: cell-based, human; details: exogeneous lactate along 10 days
Protocol: A: Levels of metabolite (LAC: lactate, PYR: pyruvate, GLUC: glucose) for FL1^+ and FL1^0 cells; B & C: Effect of lactate addition (LAC) on FL1^+ cell morphology by phase contrast imaging (B) and on the percentage of FL1^0 cells (C). Non treated (NT); Scale bar: […]. D: Level of active Lactate Deshydrogenase (LD expressed in UI/L) in purified-FL1^+ and -FL1^0 cells.

[2] = tested on: primary glioma cells (FBS cultures)
Protocol: (§1) To test the specificity of such inhibitor towards CICs, normal brains cells and primary glioma cells (FBS cultures) were exposed to the above mentioned mitochondrial agents for 10 days.
(§2) For short term/dose response (48 hrs): Dissociated gliomasphere cells, adherent glioma and normal cells were plated at 10 cell/μl in DMEM-F12 Glutamax, BIT20% or B27 (1/50), Hepes 30 mM, Penicillin/streptomycin 1/1000, with reduced mitogens at 1 ng/ml or with reduced level of serum (2.5%).
(§3) For long term treatment/recovery assay (T10 and/or T20): Dissociated gliomasphere cells, adherent glioma and normal cells were plated at 2 cell/μl in DMEM-F12 Glutamax, Hepes 30 mM, BIT20% or B27 (1/50), Penicillin/streptomycin 1/1000, with reduced mitogens at 1 ng/ml or with reduced level of serum (2.5%).
(§4) For the recovery, cells were harvested, washed with PBS1x, and placed back into their standard media.

Protocol for normal brain cells: as §1, §2, §3, §4

`CN(C)CCCN1c2ccccc2CCc2ccc(Cl)cc21` [Anafranil, Clomipramine] was tested, and the “killing of FL1^+ cells” value [1] was “kills all FL1^+ cell”, the “histological analyses for tumours” value (primary GBM-2 cells) was “no visible tumours” and the “state of mice implanted with pretreated cells” value (primary GBM-2 cells) was “alive without symptoms”.
For `CCCCCC[C@H]1C(=O)O[C@H](C)[C@H](NC(=O)c2cccc(NC=O)c2O)C(=O)O[C@@H](C)[C@@H]1OC(=O)CC(C)C` [Antimycin A], the “effect on normal brain cells” value (normal brain cells; FIG. 6) was “does not really affect the viability of normal brain cells” and the “viability of normal brain cells” value (normal brain cells; exposure for 10 days) was “allows normal brain cells to survive”.
In the case of `C[C@H](NC(=O)Cc1cc(F)cc(F)c1)C(=O)N[C@H](C(=O)OC(C)(C)C)c1ccccc1` [DAPT, N—[N-(3,5-Difluorophenacetyl-L-alanyl)]-S-phenylglycine t-Butyl Ester], the “rating as anti-CSC agent” value [1] is reported as “inefficient” and the “number of viable FL1^+ cells” value [1] is reported as “decrease of the number of viable FL1^+ cells”.
`C#Cc1cccc(Nc2ncnc3cc(OCCOC)c(OCCOC)cc23)c1` [Erlotinib] was tested, and the “time in which gliomasphere cultures recover from the treatment” value ([1]; all gliomasphere cultures, long term treatment, Erlotinib 5 μM) was no more than 10 days and the “GBM in which cell death is induced in more than 50% of FL1^+ cells” value ([1]; long term treatment, Erlotinib 5 μM) was 2/6.
With `C=C(C)[C@H]1Cc2c(ccc3c2O[C@@H]2COc4cc(OC)c(OC)cc4[C@@H]2C3=O)O1` [Rotenone] the “killing of FL1^+ cells” value [1] was “kills all FL1^+ cell”, the “killing of FL1^+ cell population by inhibition of mitochondrial complex” value [1] was “kills the FL1^+ cell population” and the “histological analyses for tumours” value (primary GBM-2 cells) was “no visible tumours”. The “state of mice implanted with pretreated cells” value (primary GBM-2 cells) was “alive without symptoms”.
In the case of `CC1=C2C[C@H]3[C@@H](CC=C4C[C@@H](O)CC[C@@]43C)[C@@H]2CC[C@]12O[C@@H]1C[C@H](C)CN[C@H]1[C@H]2C` [cyclopamine, Cyclopamine], the “rating as anti-CSC agent” value [1] is reported as “inefficient”.
`CC(O)C(=O)O` (centres unmarked) [lactate] was tested, and the “effect on FL1^+ cell morphology” value (FL1^+ cells) was “induce cell adhesion” and the “effect on cell phenotype (FL1^0 cells)” value (FL1^+ cells) was “commits cells towards the FL1^0 phenotype”.
For `Cn1nnc2c(C(N)=O)ncn2c1=O` [temozolomide, Temozolomide], the viability at 25 µM ([1]; Homo sapiens, 480 h, temozolomide 25 μM, up to 20 days treatment, read-out: FL1^+ cells still viable after treatment) was greater than 30%.
With `CO[C@H]1C[C@@H]2CC[C@@H](C)[C@@](O)(O2)C(=O)C(=O)N2CCCC[C@H]2C(=O)O[C@H]([C@H](C)C[C@@H]2CC[C@@H](OC(=O)C(C)(CO)CO)[C@H](OC)C2)CC(=O)[C@H](C)/C=C(\C)[C@@H](O)[C@@H](OC)C(=O)[C@H](C)C[C@H](C)/C=C/C=C/C=C/1C` [temsirolimus, Temsirolimus] the “rating as anti-CSC agent” value [1] was “inefficient” and the “number of viable FL1^+ cells” value [1] was “decrease of the number of viable FL1^+ cells”.
For Oligomycin A/B, the “killing of FL1^+ cells” value [1] was “kills all FL1^+ cell”, the “killing of FL1^+ cell population by inhibition of mitochondrial complex” value [1] was “kills the FL1^+ cell population” and the “effect on glioma cells” value ([2]; FIG. 6) was “eradicate any kind of brain cells including normal and glioma ones”. The “viability of primary glioma cells” value ([2]; exposure for 10 days, FBS cultures) was “sensitive”.
